Assays:
[1] = DPPH radical scavenging assay; details: three independent experiments; read-out: Mean IC50 (mM) for initial DPPH radicals ± SD
Description: The antioxidant activities of the studied compounds were assessed using the 1,1-diphenyl-2-picrylhydrazyl (DPPH) radical scavenging method as detailed by Bersuder et al.. The results were expressed as IC50 (mM)—the concentration of the test compound required to neutralize 50% of DPPH radicals.
The antioxidant efficiencies of target compounds were determined using the 1,1-diphenyl-2-picrylhydrazyl (DPPH) radical scavenging method as detailed by Bersuder et al.. […]
S3.2. Evaluation of Biological Activities.
S3.2.1. In vitro DPPH radical scavenging assay.
The antioxidant efficiencies of compounds—3a−e, 8, 9a−c, 13, 14, 17, 18a−h, 20, 22, 23, and 25—were
determined using the 1,1-diphenyl-2-picrylhydrazyl (DPPH) radical scavenging method as
detailed by Bersuder et al.. Fundamentally, the purple color of the stabilized DPPH radical
fades in the presence of an antioxidant, thus, the change of absorbance can be followed
spectrophotometrically at 519 nm. In the assay, equal volumes (0.5 mL) of DPPH ethanolic solution
and each compound (0-2 mg/mL in DMSO) or butylated hydroxytoluene (BHT) as the reference
were mixed well by shaking. The negative control consisted of the same amount of DMSO and
DPPH solution. After, incubation all mixtures at room temperature in the dark for one hour, the
absorbance of the residual DPPH radicals was measured at 519 nm using the UV‐vis
spectrophotometer. The DPPH radical scavenging activity of each compound (%) was calculated
Scavenging activity = (1 − Acompound/AControl) * 100, where Acompound and Acontrol the absorbance values
of each tested compound (or BHT) and the negative control, respectively. The half maximal
inhibitory concentration (IC50) for each compound in mg/mL was deduced by graphing the dose-
response curve relating the scavenging activity (%) to the compound concentration. Data points
represent the mean ± standard deviation (SD) of three independent determinations.

PDK-1 = PDK-1 (Homo sapiens, UniProt Q15118); assay: In vitro PDK-1 inhibition assay (Kinase-Glo luminescent kinase kit); format: biochemical; details: for inhibition at 100 µg/mL: three replicates, read-out: Mean Inhibition Percent ± SD, PDK-1; for IC50: three independent experiments, read-out: Mean IC50 µM ± SD, PDK-1
Sequence of PDK-1 (Q15118 29-436): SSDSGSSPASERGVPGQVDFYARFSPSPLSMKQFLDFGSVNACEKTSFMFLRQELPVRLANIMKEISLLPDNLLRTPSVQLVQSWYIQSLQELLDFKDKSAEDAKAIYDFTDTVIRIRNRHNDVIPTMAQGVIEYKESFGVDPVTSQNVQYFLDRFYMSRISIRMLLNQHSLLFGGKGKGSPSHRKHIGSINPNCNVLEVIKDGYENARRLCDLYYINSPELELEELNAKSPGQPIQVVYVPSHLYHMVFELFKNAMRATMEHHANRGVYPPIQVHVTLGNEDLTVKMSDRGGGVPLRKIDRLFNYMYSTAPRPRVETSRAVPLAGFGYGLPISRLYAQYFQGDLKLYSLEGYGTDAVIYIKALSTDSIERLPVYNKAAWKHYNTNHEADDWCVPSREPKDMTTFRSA
Description: Principally, the PDK-1 inhibitory activities were evaluated using the non-radioactive Kinase-Glo™ Luminescent Kinase Kit (Promega Corporation, Madison, WI, USA) following the instructions of the manufacturer.
S3.2.2. In vitro PDK-1 inhibition assay.
The PDK-1 inhibitory activities of the test compounds were evaluated using the non-radioactive
Kinase-Glo™ Luminescent Kinase kit (Promega Corporation, Madison, WI, USA), following the
manufacturer’s protocol. Briefly, 5 μL of assay buffer—containing 10 × 250 mM Tris-HCl, 50 mM
MgCl2, 5 mM ethyleneglycol-bis(β-aminoethylether)-N,N,N′,N′-tetraacetic acid (EGTA), 10 mM
ethylenedi- aminetetraacetic acid (EDTA), and 10 mM dithiothreitol (DTT)—was added to each
well of a 96-well plate, along with 25 μL of distilled water. Subsequently, 5 μL of each test
compound at various concentrations (50, 100, 200 and 300 μg/mL in 1% DMSO) was added to the
respective wells, except for the two control wells, which received 5 μL of either PBS buffer or 1%
DMSO. Then, 5 μL of pyruvate dehydrogenase E1 (PDH E1) protein (10 μM) and 5 μL of ATP
(10 μM) were added to each well. To initiate phosphorylation, 5 μL of PDK-1 (20 μM) in protein
buffer (1 mM MgCl2, 2000 mM KCl, 40 mM K3PO4) was added to all the wells except the control
wells, which received 5 μL of protein buffer instead. The plate was then mixed thoroughly and
incubated at 37 °C for 30 minutes. After incubation, 50 μL of kinase-Glo® reagent was added to each
well, followed by a 10-minute incubation at room temperature with gentle shaking to stabilize the
luminescent signal. Luminescence was then measured using a microplate reader.
The IC50 value—defined as the concentration of a compound required to reduce luminescence by
50%, compared to untreated control wells—was determined for each compound from the
corresponding dose–response curve generated by plotting PDK-1 inhibition (%) versus compound
concentration. Sodium dichloroacetate (SDA, 1000 μM) was used as a reference PDK-1inhibitor. […]

[2] = tested on: LoVo colon carcinoma cells; assay: Cell viability, LDH release assay, LoVo; details: Homo sapiens, LoVo, 48 h; for viability at 100 µg/mL: read-out: Mean % of viable cells ± SD, LoVo, 100 µg/mL, 48 h, LDH release assay; for IC50: read-out: Mean IC50 Values in µM ± SD, LoVo cells
Description: (§1) The studied compounds were also screened for their cytotoxic effects on HCT-116 and LoVo colon carcinoma cells, as well as normal HUVECs, using the standard LDH assay at a concentration of 100 µg/mL.
(§2) The antiproliferative activities of the newly synthesized compounds 3a–e, 8, 9a–c, 13, 14, 17, 18a–h, 20, 22, 23 and 25 were examined on human colon HCT-116 and LoVo cell lines as well as HUVEC (American Type Culture Collection, Manassas, VA, USA). […]
(§3) S3.2.4. Cell culture and viability assay.
(§4) The cytotoxic activities of the newly synthesized compounds (3a-e, 8, 9a-c, 13, 14, 17, 18a-h, 20, 22,
(§5) 23, and 25) were examined on human colon cancer cell lines HCT-116 and Lovo (American Type
(§6) Culture Collection, USA). Various concentrations (50, 100, 200, and 400 μg/mL) of test compounds
(§7) were prepared in Dulbecco’s Modified Eagles Medium (PAN-Biotech, Barcelona, Spain),

[3] = Cell viability, LDH release assay, normal HUVECs; details: human, normal HUVECs, Mean % of viable cells ± SD, HUVEC
Description: as §1, §2
medium served used as negative and positive controls, respectively. Percentages of viable cells […]
were calculated based on relative optical density (OD) values (at 550 nm) for compound-treated […]
wells (final concentration of 100 μg/mL), compared to the negative control, and expressed as mean value (%) ± SD from two replicates. Graphing dose-response curves representing the compound […]
concentration versus the percentages of viable cells was also conducted to deduce the half - […]
Additionally, the safety profiles of the studied compounds were assessed against normal cells […]
(HUVECs) at final concentration of 100 μg/mL . HUVECs were grown in Dulbecco’s Modified Eagle’s Medium supplemented with 10% FBS, 2 mM glutamine (Sigma Aldrich), 100 units/mL penicillin and […] streptomycin (Life Technologies; Paisley, UK). […]

[4] = tested on: HCT-116 colon carcinoma cells; assay: Cell viability, LDH release assay, HCT-116; details: Homo sapiens, HCT-116, 48 h; for viability at 100 µg/mL: read-out: Mean % of viable cells ± SD, HCT-116, 100 µg/mL, 48 h, LDH release assay; for IC50: read-out: Mean IC50 Values in µM ± SD, HCT-116 cells
Description: as §1, §2, §3, §4, §5, §6, §7

[5] = target: recombinant human LDHA protein (Homo sapiens, UniProt P00338); assay: In vitro LDHA inhibitory assay (NADH consumption); format: biochemical; details: for inhibition at 100 µg/mL: three replicates, read-out: Mean Inhibition Percent ± SD, LDHA; for IC50: three independent experiments, read-out: Mean IC50 µM ± SD, LDHA
From the text: The LDHA inhibitory efficiencies were investigated on Spectramax M2 spectrofluorometer via measuring the amounts of the consumed NADH^40 using an NAD^+/NADH quantification kit. […]
S3.2.3. In vitro LDHA inhibitory assay.
The LDHA inhibitory activity of the test compounds was investigated using Spectramax M2
spectrofluorometer by measuring the amounts of the consumed NADH [42] employing
NAD+/NADH quantification kit. Briefly, the assay medium containing various concentrations of
each test compound (50, 100, 200 and 300 μg/mL) was incubated in assay medium composed of 20
mM of HEPES-K+ buffer (pH 7.2), 20 μM of NADH, 2 mM of pyruvate and 10 ng of purified
recombinant human LDHA protein for 10 min utes. The activity of LDHA would result in reduction
of pyruvate into lactate with concomitant oxidation of NADH to NAD +. Since NADH (reduced
LDHA, could be inversely quantified by monitoring the change in the intensity of the fluorescence
at 340 nm over a 10-minute period. The rate of the fluorescence change (slope) in treated samples
was compared to that obtained from negative control experiment (100 % enzymatic activity) to
determine the percentage of inhibition. The IC50 value—defined as the compound concentration
required to reduce the luminescence by 50%, compared to untreated control wells—was
determined for each compound from the corresponding dose–response curve generated by
plotting LDHA inhibition (%) against compound concentration.
was used as the reference LDHA inhibitor. […]

| Structure (SMILES) | IC50 [1] | inhibition at 100 µg/mL (PDK-1) | viability at 100 µg/mL [2] | viability at 48 h, 100 µg/mL [3] | viability at 100 µg/mL [4] | inhibition at 100 µg/mL [5] | IC50 (PDK-1) | IC50 [2] | IC50 [4] | IC50 [5] |
| --- | --- | --- | --- | --- | --- | --- | --- | --- | --- | --- |
| CCOC(=O)c1sc(/N=C/c2cc(OC)c(OC)c(OC)c2)nc1C [Compound 9b, Ethyl(E)-4-methyl-2-((3,4,5-trimethoxybenzylidene)amino)thiazole-5-carboxylate] | 1.81 ± 0.115 mM | 30.1 ± 1.56% | 60.3 ± 2.83% | 81.7 ± 2.52% | 54 ± 4.58% | 33.4 ± 1.98% |  |  |  |  |
| CCOC(=O)c1sc(/N=C/c2c(O)ccc3ccccc23)nc1C [Compound 9c, Ethyl(E)-2-(((2-hydroxynaphthalen-1-yl)methylene)amino)-4-methylthiazole-5-carboxylate] | 0.881 ± 0.041 mM | 48.8 ± 1.77% | 60.3 ± 2.12% | 80.7 ± 3.22% | 64.3 ± 3.06% | 67.3 ± 3.32% |  |  |  |  |
| COc1cc2nc(C)n(-c3ccc(-c4nc5ccccc5s4)cc3)c(=O)c2cc1OC [Compound 13, 3-(4-(Benzo[d]thiazol-2-yl)phenyl)-6,7-dimethoxy-2-methylquinazolin-4(3H)-one] | 1.82 ± 0.188 mM | 40.5 ± 2.76% | 86.5 ± 2.12% | 84 ± 2.33% | 71.5 ± 2.12% | 40.2 ± 3.18% |  |  |  |  |
| COc1cc2nc(C)n(C3CCCCC3)c(=O)c2cc1OC [Compound 14, 3-Cyclohexyl-6,7-dimethoxy-2-methylquinazolin-4(3H)-one] | 0.327 ± 0.007 mM | 80.5 ± 4.95% | 13 ± 1.14% | 95 ± 1.82% | 12.5 ± 0.71% | 37 ± 2.83% | 192 ± 5.57 µM | 292.1 ± 1.17 µM | 293 ± 5.38 µM | 378 ± 3.98 µM |
| CCOC(=O)Nn1c(C)nc2cc(OC)c(OC)cc2c1=O [Compound 17, Ethyl (6,7-Dimethoxy-2-methyl-4-oxoquinazolin-3(4H)-yl)carbamate] | 0.307 ± 0.01 mM | 91 ± 2.83% | 10.5 ± 0.71% | 96 ± 2.56% | 20.5 ± 2.12% | 5.75 ± 0.35% | 169 ± 1.81 µM | 277 ± 0.21 µM | 302 ± 10.5 µM | 1060 ± 7.64 µM |
| COc1cc(OC)c(/C=N/n2c(C)nc3cc(OC)c(OC)cc3c2=O)c(OC)c1 [Compound 18a, (E)-6,7-Dimethoxy-2-methyl-3-((2,4,6-trimethoxybenzylidene)amino)quinazolin-4(3H)-one] | 1.38 ± 0.039 mM | 66.7 ± 1.53% | 48.3 ± 2.83% | 85 ± 1% | 40.7 ± 4.16% | 16.6 ± 0.78% |  | 132 ± 7.4 µM | 210 ± 2.42 µM |  |
| COc1cc2nc(C)n(/N=C/c3ccc(C(F)(F)F)cc3)c(=O)c2cc1OC [Compound 18c, (E)-6,7-Dimethoxy-2-methyl-3-((4-(trifluoromethyl)benzylidene)amino)quinazolin-4(3H)-one] | 0.606 ± 0.015 mM | 44.7 ± 1.53% | 63 ± 3% | 91.3 ± 2.08% | 71.3 ± 6.51% | 21.1 ± 0.99% |  |  |  |  |
| COc1cc(/C=N/n2c(C)nc3cc(OC)c(OC)cc3c2=O)ccc1O [Compound 18d, (E)-3-((4-Hydroxy-3-methoxybenzylidene)amino)-6,7-dimethoxy-2-methylquinazoli-N-4(3H)-one] | 0.658 ± 0.016 mM | 65 ± 3.46% | 30.7 ± 4.24% | 86.3 ± 1.53% | 38 ± 2% | 12.2 ± 1.98% |  | 202 ± 7.82 µM | 238 ± 8.12 µM |  |

— paper PMC12196476, “New Nitrogen-, Oxygen-, and Sulfur-Containing Heterocyclic Compounds as Anti-Colon Cancer Agents: Synthesis, Multitargeted Evaluations, Molecular Docking Simulations and ADMET Predictions” (Pharmaceuticals, 2025)
